Measured values taken from ChEMBL document CHEMBL1144475, “Design, synthesis, and evaluation of inhibitors for severe acute respiratory syndrome 3C-like protease based on phthalhydrazide ketones or heteroaromatic esters” (J Med Chem, 2007).
Non-standard residues stand in square brackets, D forms with d. Residues, ends and D or L forms follow the SMILES beside them. *: point of attachment. Ala(2-oxopyrrolidin-3S-yl) = N[C@@H](C[C@@H]1CCNC1=O)C(=O)O; X1 = Clc1cncc(O*)c1; Bn = c1ccc(C*)cc1

What was measured:
[1] = target: Replicase polyprotein 1a (Severe acute respiratory syndrome-related coronavirus) (UniProt P0C6U8); assay: Inhibition of SARS coronavirus His-3C-like protease at 100 uM
[2] = target: Replicase polyprotein 1a (Severe acute respiratory syndrome-related coronavirus) (UniProt P0C6U8); assay: Inhibition of SARS coronavirus 3C-like protease at 1 uM
Replicase polyprotein 1a = Replicase polyprotein 1a (Severe acute respiratory syndrome-related coronavirus, UniProt P0C6U8); assay: Inhibition of SARS coronavirus 3C-like protease

## O=C(Oc1cccnc1Cl)c1cccs1
[1]
  inhibition: 20%

## CC(=O)N[C@H](C(=O)N[C@H](C(=O)N[C@@H](CC(C)C)C(=O)N[C@@H](C[C@@H]1CCNC1=O)C(=O)c1cccs1)[C@@H](C)O)C(C)C
[1]
  inhibition: 23%

## O=C(Oc1cccnc1)c1cccs1
[1]
  inhibition: 91%

## O=C(Oc1cncc(Cl)c1)c1ccccc1
[1]
  inhibition: 92%

## O=C(Oc1cncc(Cl)c1)c1ccc(-c2ccc(Cl)cc2)o1
[2]
  inhibition: 98%
Replicase polyprotein 1a
  IC50: 63 nM

## O=C(Nc1ccc(Cl)cn1)c1cccs1
[1]
  inhibition: < 10%

## O=C(Oc1cncc(Cl)c1)c1ccoc1
[1]
  inhibition: 89%

## Cc1ccc(OC(=O)c2cccs2)c([N+](=O)[O-])n1
[1]
  inhibition: 15%

## Clc1cncc(OCc2ccco2)c1
[1]
  inhibition: 11%

## O=C(Cc1cccnc1)c1cccs1
[1]
  inhibition: < 10%

## O=C(Oc1ccc(Cl)nc1)c1cccs1
[1]
  inhibition: 13%

## O=C(Oc1cncc(Cl)c1)c1cscn1
[2]
  inhibition: 98%
Replicase polyprotein 1a
  IC50: 270 nM

## O=Cc1ccc(-c2ccc(Cl)cc2)o1
[1]
  inhibition: 70%

## O=C(Oc1cncc(Cl)c1)c1ccco1
[1]
  inhibition: 99%
Replicase polyprotein 1a
  IC50: 60 nM

## CC(=O)N[C@H](C(=O)N[C@H](C(=O)N[C@@H](CC(C)C)C(=O)N[C@@H](Cc1ccccc1)C(=O)Cn1[nH]c(=O)c2ccccc2c1=O)[C@@H](C)OCc1ccccc1)C(C)C
[1]
  inhibition: 72%

## O=C(Oc1cncc(Cl)c1)c1cc2ccccc2s1
[2]
  inhibition: 96%
Replicase polyprotein 1a
  IC50: 95 nM

## O=Cc1cscn1
[1]
  inhibition: 36%

## O=C(Nc1ccccn1)c1cccs1
[1]
  inhibition: < 10%

## O=C(Oc1ccco1)c1cccnc1
[1]
  inhibition: 80%

## O=Cc1cccs1
[1]
  inhibition: < 10%

## COc1cccc(C(=O)Oc2cncc(Cl)c2)c1
[2]
  inhibition: 97%

## O=C(Oc1cncc(Cl)c1)c1cc2ccccc2o1
[1]
  inhibition: 94%
Replicase polyprotein 1a
  IC50: 170 nM

## O=C(OCc1cccnc1)c1cccs1
[1]
  inhibition: 19%

## O=C(Oc1ccccn1)c1cccs1
[1]
  inhibition: 13%

## O=S(=O)(Nc1cccnc1)c1cccs1
[1]
  inhibition: < 10%

## Cc1cccc(OC(=O)c2cccs2)n1
[1]
  inhibition: 38%

## CC(=O)N[C@H](C(=O)N[C@H](C(=O)N[C@@H](CC(C)C)C(=O)N[C@@H](C[C@@H]1CCNC1=O)C(=O)Oc1cncc(Cl)c1)[C@@H](C)OCc1ccccc1)C(C)C (Ac-VT(Bn)L[Ala(2-oxopyrrolidin-3S-yl)]-X1)
[1]
  inhibition: < 10%

## CC(=O)N[C@H](C(=O)N[C@H](C(=O)N[C@@H](CC(C)C)C(=O)N[C@@H](C[C@@H]1CCNC1=O)C(=O)c1cccs1)[C@@H](C)OCc1ccccc1)C(C)C
[1]
  inhibition: < 10%

## O=C(Nc1cccnc1Cl)c1cccs1
[1]
  inhibition: < 10%

## O=C(Nc1ccc(F)cn1)c1cccs1
[1]
  inhibition: < 10%

## Cc1ccc(OC(=O)c2cccs2)cn1
[1]
  inhibition: < 10%

## O=C(Oc1cncc(Cl)c1)c1ccc[nH]1
[1]
  inhibition: 65%

## O=Cc1ccco1
[1]
  inhibition: 23%

## Cc1ncccc1OC(=O)c1cccs1
[1]
  inhibition: < 10%

## Cc1ccc(OC(=O)c2cccs2)nc1
[1]
  inhibition: < 10%

## O=C(Cc1cncc(Br)c1)c1ccco1
[1]
  inhibition: < 10%

## O=Cc1cc2ccccc2[nH]1
[1]
  inhibition: 39%

## O=C(OCc1cncc(Br)c1)c1ccco1
[1]
  inhibition: 90%

## O=C(Oc1cncc(Br)c1)c1ccco1
[1]
  inhibition: 99%
[2]
  inhibition: 98%
Replicase polyprotein 1a
  IC50: 50 nM

## O=C(Oc1cccc(Cl)c1)c1ccco1
[1]
  inhibition: 40%

## O=C(Nc1cccnc1)c1cccs1
[1]
  inhibition: 13%

## O=C(Oc1cncc(Cl)c1)c1cc2ccccc2[nH]1
[2]
  inhibition: 99%
Replicase polyprotein 1a
  IC50: 65 nM

## O=C(Nc1ccncc1)c1cccs1
[1]
  inhibition: < 10%

## O=C(Oc1cccc(Cl)n1)c1cccs1
[1]
  inhibition: < 10%

## O=C(Oc1ccncc1)c1cccs1
[1]
  inhibition: < 10%
